Source: ChEMBL document CHEMBL1201862, “PubChem BioAssay data set” (2004)
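Cultured in 96-well plates, cells were exposed to test compound for 48 hours across five concentrations. At the GI50, growth is halved.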 Calls of active or inactive are those of the source. No stated cut-off is given here; in the data, active = GI50 up to about 1.1 µM and inactive = higher.

What was measured:
Experiment in all cases: growth of human tumour cells (NCI), 48 h
786-0 = tested on: 786-0
BT-549 = tested on: BT-549
COLO 205 = tested on: COLO 205
HCC 2998 = tested on: HCC 2998
HCT-15 = tested on: HCT-15
HL-60 = tested on: HL-60
HOP-62 = tested on: HOP-62
Hs-578T = tested on: Hs-578T
KM12 = tested on: KM12
MDA-MB-231 = tested on: MDA-MB-231
NCI-H23 = tested on: NCI-H23
NCI-H460 = tested on: NCI-H460
NCI-H522 = tested on: NCI-H522
NCI/ADR-RES = tested on: NCI/ADR-RES
OVCAR-8 = tested on: OVCAR-8
SF-268 = tested on: SF-268
SF-539 = tested on: SF-539
SK-MEL-2 = tested on: SK-MEL-2
SNB-75 = tested on: SNB-75
CCRF-CEM = tested on: CCRF-CEM

Structure (SMILES)	GI50 (786-0)	GI50 (BT-549)	GI50 (COLO 205)	GI50 (HCC 2998)	GI50 (HCT-15) [µM]	GI50 (HL-60)	GI50 (HOP-62)	GI50 (Hs-578T)	GI50 (KM12)	GI50 (MDA-MB-231)	GI50 (NCI-H23)	GI50 (NCI-H460)	GI50 (NCI-H522)	GI50 (NCI/ADR-RES)	GI50 (OVCAR-8)	GI50 (SF-268)	GI50 (SF-539)	GI50 (SK-MEL-2)	GI50 (SNB-75)	GI50 (CCRF-CEM)
CN(C)C/C=C(/c1ccc(Br)cc1)c1cccnc1	94 µM (inactive)	79.4 µM (inactive)	16.6 µM (inactive)	15.7 µM (inactive)	> 100	0.0165 µM (active)	45 µM (inactive)	48 µM (inactive)	74.1 µM (inactive)	32.7 µM (inactive)	> 100 µM (inactive)	81.3 µM (inactive)	56.4 µM (inactive)	69.5 µM (inactive)	> 100 µM (inactive)	65.8 µM (inactive)	> 100 µM (inactive)	19.8 µM (inactive)	51.5 µM (inactive)	–
Cn1c(COC(=O)Nc2ccccc2)c(COC(=O)Nc2ccccc2)c2ccc3cc(Cl)c(Cl)cc3c21	2.76 µM (inactive)	2.58 µM (inactive)	3.39 µM (inactive)	5.5 µM (inactive)	4.4	2.46 µM (inactive)	–	5.73 µM (inactive)	10.2 µM (inactive)	3.33 µM (inactive)	2.63 µM (inactive)	8.2 µM (inactive)	–	16.4 µM (inactive)	6.73 µM (inactive)	3.57 µM (inactive)	10.8 µM (inactive)	4.31 µM (inactive)	8.53 µM (inactive)	1.51 µM (inactive)
C=CCN1C(=O)/C(=C/c2ccccc2)N=C1SC/C=C/C	42.7 µM (inactive)	51.3 µM (inactive)	52.2 µM (inactive)	28.3 µM (inactive)	47.5	–	> 100 µM (inactive)	69.5 µM (inactive)	37.4 µM (inactive)	86.7 µM (inactive)	58.7 µM (inactive)	43.8 µM (inactive)	33 µM (inactive)	49.4 µM (inactive)	45.1 µM (inactive)	57.9 µM (inactive)	> 100 µM (inactive)	26.2 µM (inactive)	46.2 µM (inactive)	27.9 µM (inactive)
CCOC(=O)/C(C#N)=C/c1ccnc2ccccc12	61.9 µM (inactive)	50.5 µM (inactive)	> 100 µM (inactive)	> 100 µM (inactive)	31.9	–	> 100 µM (inactive)	> 100 µM (inactive)	32.5 µM (inactive)	83.9 µM (inactive)	31.8 µM (inactive)	> 100 µM (inactive)	> 100 µM (inactive)	13.5 µM (inactive)	10.4 µM (inactive)	> 100 µM (inactive)	20.2 µM (inactive)	> 100 µM (inactive)	> 100 µM (inactive)	–
NC(CCC(=O)c1ccccn1)C(=O)O (stereo not drawn)	> 100 µM (inactive)	> 100 µM (inactive)	> 100 µM (inactive)	> 100 µM (inactive)	> 100	> 100 µM (inactive)	> 100 µM (inactive)	> 100 µM (inactive)	> 100 µM (inactive)	> 100 µM (inactive)	> 100 µM (inactive)	> 100 µM (inactive)	> 100 µM (inactive)	> 100 µM (inactive)	> 100 µM (inactive)	> 100 µM (inactive)	> 100 µM (inactive)	> 100 µM (inactive)	–	> 100 µM (inactive)
CC(=O)Nc1ccc2cc3c(nc2n1)c1cccnc1n3S(=O)(=O)c1ccccc1	8.02 µM (inactive)	> 100 µM (inactive)	> 100 µM (inactive)	> 100 µM (inactive)	> 100	> 100 µM (inactive)	> 100 µM (inactive)	> 100 µM (inactive)	> 100 µM (inactive)	> 100 µM (inactive)	10.5 µM (inactive)	> 100 µM (inactive)	> 100 µM (inactive)	> 100 µM (inactive)	> 100 µM (inactive)	> 100 µM (inactive)	–	> 100 µM (inactive)	59.6 µM (inactive)	> 100 µM (inactive)
Cc1c(-c2ccccc2)n(C)c2cn[nH]c(=O)c12	23.3 µM (inactive)	32.3 µM (inactive)	17.1 µM (inactive)	27.8 µM (inactive)	36.6	36.5 µM (inactive)	30 µM (inactive)	41.2 µM (inactive)	37.5 µM (inactive)	17.9 µM (inactive)	38.4 µM (inactive)	63.8 µM (inactive)	> 100 µM (inactive)	26.7 µM (inactive)	39.2 µM (inactive)	37.5 µM (inactive)	45 µM (inactive)	22.7 µM (inactive)	–	40.2 µM (inactive)
C[C@@H]1OC(=O)C[C@H]2CC(=O)N(CCc3cn(S(=O)(=O)C(F)(F)F)c4ccccc34)C[C@@H]21	> 100 µM (inactive)	> 100 µM (inactive)	> 100 µM (inactive)	> 100 µM (inactive)	> 100	–	> 100 µM (inactive)	> 100 µM (inactive)	> 100 µM (inactive)	> 100 µM (inactive)	> 100 µM (inactive)	> 100 µM (inactive)	> 100 µM (inactive)	> 100 µM (inactive)	> 100 µM (inactive)	> 100 µM (inactive)	–	> 100 µM (inactive)	> 100 µM (inactive)	> 100 µM (inactive)
CCOC(=O)c1c(N2CCOCC2)[nH]c(=O)c(C(c2ccco2)c2c(O)c(C(=O)OCC)c(N3CCOCC3)[nH]c2=O)c1O	> 100 µM (inactive)	> 100 µM (inactive)	> 100 µM (inactive)	> 100 µM (inactive)	> 100	–	> 100 µM (inactive)	> 100 µM (inactive)	> 100 µM (inactive)	> 100 µM (inactive)	> 100 µM (inactive)	> 100 µM (inactive)	> 100 µM (inactive)	> 100 µM (inactive)	> 100 µM (inactive)	> 100 µM (inactive)	> 100 µM (inactive)	> 100 µM (inactive)	> 100 µM (inactive)	> 100 µM (inactive)
O=C1CSC(c2cccc([N+](=O)[O-])c2)N1c1ccc(-c2ccc(-n3c(-c4ccccc4)nc4ccccc4c3=O)cc2)cc1 (stereo not drawn)	24.6 µM (inactive)	23.3 µM (inactive)	21.1 µM (inactive)	> 100 µM (inactive)	32.1	19.5 µM (inactive)	63.7 µM (inactive)	49.1 µM (inactive)	21.8 µM (inactive)	29.9 µM (inactive)	59.8 µM (inactive)	25.5 µM (inactive)	25.6 µM (inactive)	37.2 µM (inactive)	40.7 µM (inactive)	41.1 µM (inactive)	46.5 µM (inactive)	29.2 µM (inactive)	–	23 µM (inactive)
O=c1c2c(-c3ccccc3)onc2n(-c2ccccc2)c(=O)n1-c1ccccc1	> 100 µM (inactive)	19.2 µM (inactive)	> 100 µM (inactive)	18.2 µM (inactive)	15.8	–	21.8 µM (inactive)	28.4 µM (inactive)	17.9 µM (inactive)	> 100 µM (inactive)	19 µM (inactive)	17.9 µM (inactive)	15.7 µM (inactive)	16.9 µM (inactive)	17.5 µM (inactive)	30.1 µM (inactive)	> 100 µM (inactive)	11 µM (inactive)	27.8 µM (inactive)	> 100 µM (inactive)
Nc1cc2nc(O)c(O)nc2cc1N	> 100 µM (inactive)	> 100 µM (inactive)	> 100 µM (inactive)	> 100 µM (inactive)	> 100	> 100 µM (inactive)	> 100 µM (inactive)	> 100 µM (inactive)	> 100 µM (inactive)	> 100 µM (inactive)	> 100 µM (inactive)	> 100 µM (inactive)	–	> 100 µM (inactive)	> 100 µM (inactive)	> 100 µM (inactive)	> 100 µM (inactive)	> 100 µM (inactive)	> 100 µM (inactive)	> 100 µM (inactive)
Cc1ccc(NC(=O)CC(=O)N2N=C(N3CCCCC3)CC2c2ccccc2)cc1 (stereo not drawn)	> 100 µM (inactive)	> 100 µM (inactive)	> 100 µM (inactive)	> 100 µM (inactive)	> 100	> 100 µM (inactive)	> 100 µM (inactive)	> 100 µM (inactive)	> 100 µM (inactive)	> 100 µM (inactive)	> 100 µM (inactive)	> 100 µM (inactive)	> 100 µM (inactive)	> 100 µM (inactive)	> 100 µM (inactive)	> 100 µM (inactive)	–	> 100 µM (inactive)	> 100 µM (inactive)	> 100 µM (inactive)
COC(=O)c1cc(-c2c[nH]cc2C(=O)OCc2ccccc2)cn1S(=O)(=O)c1ccc(C)cc1	> 100 µM (inactive)	71.4 µM (inactive)	> 100 µM (inactive)	> 100 µM (inactive)	> 100	–	> 100 µM (inactive)	> 100 µM (inactive)	> 100 µM (inactive)	> 100 µM (inactive)	6.61 µM (inactive)	57.3 µM (inactive)	> 100 µM (inactive)	66.7 µM (inactive)	> 100 µM (inactive)	> 100 µM (inactive)	> 100 µM (inactive)	> 100 µM (inactive)	> 100 µM (inactive)	> 100 µM (inactive)
Nc1cc2c3c(c1)Oc1cc(N)cc4c1C3c1c(cc(N)cc1O4)O2	25.3 µM (inactive)	15.2 µM (inactive)	16.1 µM (inactive)	34.9 µM (inactive)	18.3	23.9 µM (inactive)	25.7 µM (inactive)	24.2 µM (inactive)	22.9 µM (inactive)	16.2 µM (inactive)	33 µM (inactive)	30.3 µM (inactive)	21.2 µM (inactive)	6.32 µM (inactive)	9.48 µM (inactive)	12.5 µM (inactive)	15.7 µM (inactive)	28.9 µM (inactive)	19.3 µM (inactive)	43.4 µM (inactive)
